According to patent US20130204033A1, “ANTIPROLIFERATIVE COMPOUNDS, CONJUGATES THEREOF, METHODS THEREFOR, AND USES THEREOF” (Medarex, Inc., priority 2009, published 2013):
pEC50: −log10 of the molar value. Read-outs that look alike come from different tables or passages of the source.

Columns and labels:
Format in all cases: cell-based, human
[1] = system: PC3; assay: ATP luminescence proliferation assay, PC3
Method: (§1) This example generally describes the procedures used to assay the antiproliferative activity of compounds of this invention or their conjugates. Human tumor cell lines were obtained from the American Type Culture Collection (ATCC), P.O. Box 1549, Manassas, Va. 20108, USA, and cultured according to instruction from the ATCC. Cells were seeded at 1.0×10^3 or 1.0×10^4 cells/well in 96-well plates for 3 h for ATP assays or ^3H thymidine assays, respectively. 1:3 serial dilutions of free (unconjugated) compounds or their conjugates were added to the wells. Plates were allowed to incubate for 24 to 72 h. The ^3H thymidine plates were pulsed with 1.0 μCi of ^3H-thymidine per well for the last 24 hours of the total incubation period, harvested, and read on a Top Count Scintillation Counter (Packard Instruments, Meriden, Conn.). ATP levels in the ATP plates were measured using the […]-GLO® Luminescent Cell Viability kit following the manufacturer's manual and read on a GLOMAX® 20/20 luminometer (both from Promega, Madison, Wis., USA). The EC50 values—the concentration at which an agent inhibits or reduces cell proliferation by 50% —were determined using PRISM™ software, version 4.0 (GraphPad Software, La Jolla, Calif., USA).
(§2) Using the ^3H thymidine or the ATP luminescence assay, or both, the activities of compounds of this invention were assayed against the following cancer cell lines: HCT-15 (colorectal cancer, multi-drug resistant (MDR)); Hep3B (liver cancer); LNCaP (prostate cancer, androgen receptor positive (AR^+)); MDA-MB-231 (breast cancer, estrogen receptor, progesterone receptor, and Her2 negative (triple negative)); A2058 (melanoma); U-87 MG (glioblastoma); NCI-H460 (NSCLC); A549 (NSCLC); HPAC (pancreatic cancer, primary); PC3 (prostate cancer, AR); BT474 (breast cancer, Her2 highly positive (Her2hi)); SKOV3 (ovarian cancer, Her2hi); 786-O (renal cancer); UO-31 (renal cancer, MDR); NCI-H740 (SCLC); DMS53 (SCLC); SK-BR3 (breast cancer, Her2hi); ZR-75 (breast cancer, estrogen receptor positive); OVCAR3 (ovarian cancer); HL-60 (APL); OVCAR8/Adr (ovarian cancer, MDR); CEM-Cl (ALL); Nomo-1 (AML); RPMI-8226 (MM)); Raji (lymphoma); SW-480 (colorectal cancer, metastatic); SW-620 (colorectal cancer); and H226 (lung cancer). (Not all compounds were assayed against all cell lines.)
(§3) Table 3 provides the data for the ATP luminescence proliferation assays, with an incubation period of 48, 72, or 96 h, as noted.

[2] = system: BT474; assay: 3H thymidine proliferation assay, BT474
Method: as §1, §2
(§4) Table 2 provides the data for proliferation assays using the ^3H thymidine method, with an incubation period of 72 h.

[3] = system: NCI-H460; assay: 3H thymidine proliferation assay, NCI-H460
Method: as §1, §2, §4

[4] = system: U-87 MG; assay: 3H thymidine proliferation assay, U-87 MG
Method: as §1, §2, §4

[5] = system: SKOV3; assay: ATP luminescence proliferation assay, SKOV3
Method: as §1, §2, §3

[6] = system: A2058; assay: 3H thymidine proliferation assay, A2058; details: 3H thymidine method, 72 h incubation
Method: as §1, §2, §4

[7] = system: A549; assay: 3H thymidine proliferation assay, A549
Method: as §1, §2, §4

[8] = system: Raji; assay: ATP luminescence proliferation assay, Raji
Method: as §1, §2, §3

[9] = system: Hep3B; assay: ATP luminescence proliferation assay, Hep3B
Method: as §1, §2, §3

[10] = system: SKOV3; assay: 3H thymidine proliferation assay, SKOV3
Method: as §1, §2, §4

[11] = system: OVCAR8; assay: 3H thymidine proliferation assay, OVCAR8
Method: as §1, §2, §4

[12] = system: ZR-75; assay: 3H thymidine proliferation assay, ZR-75
Method: as §1, §2, §4

[13] = system: A549; assay: ATP luminescence proliferation assay, A549; details: Homo sapiens, A549, 48 h, read-out: EC50 A549 (48 h), ATP luminescence, A549, 48 h incubation
Method: as §1, §2, §3

[14] = Homo sapiens, PC-3, 48 h, read-out: EC50 PC3 (48 h), ATP luminescence, PC3, 48 h incubation
[15] = Homo sapiens, BT-474, read-out: EC50, BT474, 3H thymidine method, 72 h incubation
[16] = Homo sapiens, NCI-H460, read-out: EC50, NCI-H460, 3H thymidine method, 72 h incubation
[17] = Homo sapiens, U-87 MG, read-out: EC50, U-87 MG, 3H thymidine method, 72 h incubation
[18] = Homo sapiens, SK-OV-3, 48 h, read-out: EC50 SKOV3 (48 h), ATP luminescence, SKOV3, 48 h incubation
[19] = Homo sapiens, A549, read-out: EC50, A549, 3H thymidine method, 72 h incubation
[20] = Homo sapiens, 72 h, read-out: EC50 Raji (72 h), ATP luminescence, Raji, 72 h incubation
[21] = Homo sapiens, 48 h, read-out: EC50 Hep3B (48 h), ATP luminescence, Hep3B, 48 h incubation
[22] = Homo sapiens, SK-OV-3, read-out: EC50, SKOV3, 3H thymidine method, 72 h incubation
[23] = Homo sapiens, OVCAR-8, read-out: EC50, OVCAR8, 3H thymidine method, 72 h incubation
[24] = ATP luminescence, PC3, 48 h incubation, read-out: EC50 PC3 (48 h)
[25] = 3H thymidine method, 72 h incubation, read-out: EC50, BT474
[26] = 3H thymidine method, 72 h incubation, read-out: EC50, NCI-H460
[27] = 3H thymidine method, 72 h incubation, read-out: EC50, U-87 MG
[28] = ATP luminescence, SKOV3, 48 h incubation, read-out: EC50 SKOV3 (48 h)
[29] = 3H thymidine method, 72 h incubation, read-out: EC50, ZR-75
[30] = 3H thymidine method, 72 h incubation, read-out: EC50, A549
[31] = ATP luminescence, 72 h incubation, read-out: EC50 Raji (72 h)
[32] = 3H thymidine method, 72 h incubation, read-out: EC50, SKOV3
[33] = 3H thymidine method, 72 h incubation, read-out: EC50, OVCAR8
[34] = Homo sapiens, ZR75, read-out: EC50, ZR-75, 3H thymidine method, 72 h incubation
[35] = ATP luminescence, SKOV3, 72 h incubation, read-out: EC50 SKOV3 (72 h)
[36] = ATP luminescence, 48 h incubation, read-out: EC50 Hep3B (48 h)
[37] = Homo sapiens, SK-OV-3, 72 h, read-out: EC50 SKOV3 (72 h), ATP luminescence, SKOV3, 72 h incubation

CC[C@H](C)[C@H](NC(=O)[C@H]1CCCCN1C)C(=O)N(C)[C@H](C[C@@H](OC)c1nc(C(=O)NC(Cc2ccccc2)C[C@H](C)C(=O)O)cs1)C(C)C (some centres unmarked) [Compound 15]
pEC50 [1, 14]: < 7.00 | pEC50 [2, 15]: 8.15 | pEC50 [3, 16]: 8.70 | pEC50 [4, 17]: 9.38 | pEC50 [5, 18]: 8.38 | pEC50 ([6]; Homo sapiens, A2058): 8.80 | pEC50 [7, 19]: 8.68 | pEC50 [8, 20]: 8.60 | pEC50 [9, 21]: 8.20 | pEC50 [10, 22]: 8.59 | pEC50 [11, 23]: 6.37

CC[C@H](C)[C@H](NC(=O)[C@H]1CCCCN1C)C(=O)N(C)[C@H](C[C@@H](OC)c1nc(C(=O)N[C@@H](Cc2ccccc2)C(=O)OC)cs1)C(C)C [Compound 16]
pEC50 [1, 24]: < 7.00 | pEC50 [2, 25]: < 7.00 | pEC50 [3, 26]: < 7.00 | pEC50 [4, 27]: < 7.00 | pEC50 [5, 28]: 7.74 | pEC50 [12, 29]: < 7.00 | pEC50 [6]: < 7.00 | pEC50 [7, 30]: < 7.00 | pEC50 [8, 31]: 8.52 | pEC50 [10, 32]: 7.36 | pEC50 [11, 33]: 5.73

CCCC(NC(=O)c1csc([C@@H](C[C@H](C(C)C)N(C)C(=O)[C@@H](NC(=O)[C@H]2CCCCN2C)[C@@H](C)CC)OC)n1)C(=O)OC (some centres unmarked) [Compound 17]
pEC50 [1, 14]: < 7.00 | pEC50 [2, 15]: < 7.00 | pEC50 [3, 16]: < 7.00 | pEC50 [4, 17]: 7.92 | pEC50 [5, 18]: 7.24 | pEC50 [12, 34]: < 7.00 | pEC50 ([6]; Homo sapiens, A2058): < 7.00 | pEC50 [7, 19]: < 7.00 | pEC50 [8, 20]: 7.57 | pEC50 [9, 21]: < 7.00 | pEC50 [10, 22]: 7.04 | pEC50 [11, 23]: 5.53

CCC[C@H](NC(=O)[C@H](Cc1ccccc1)NC(=O)c1csc([C@@H](C[C@H](C(C)C)N(C)C(=O)[C@@H](NC(=O)[C@H]2CCCCN2C)[C@@H](C)CC)OC)n1)C(=O)OC [Compound 19]
pEC50 [1, 24]: ~7.48 | pEC50 [2, 25]: < 7.00 | pEC50 [3, 26]: < 7.00 | pEC50 [4, 27]: < 7.00 | pEC50 [5, 35]: 7.82 | pEC50 [12, 29]: 7.47 | pEC50 [6]: 9.89 | pEC50 [7, 30]: < 7.00 | pEC50 [8, 31]: 8.04 | pEC50 [9, 36]: 7.74 | pEC50 [10, 32]: < 7.00 | pEC50 [11, 33]: 7.16

CC[C@H](C)[C@H](NC(=O)[C@H]1CCCCN1C)C(=O)N(C)[C@H](C[C@@H](OC)c1nc(C(=O)N[C@@H](Cc2ccccc2)C(=O)N[C@@H](C)C(=O)OC)cs1)C(C)C [Compound 24]
pEC50 [1, 14]: 7.89 | pEC50 [2, 15]: < 7.00 | pEC50 [3, 16]: < 7.00 | pEC50 [4, 17]: 7.74 | pEC50 [5, 37]: 7.89 | pEC50 [12, 34]: 8.44 | pEC50 ([6]; Homo sapiens, A2058): 9.92 | pEC50 [7, 19]: 7.42 | pEC50 [8, 20]: 8.10 | pEC50 [9, 21]: 8.00 | pEC50 [10, 22]: 7.17 | pEC50 [11, 23]: < 7.00

CC[C@H](C)[C@H](NC(=O)[C@H]1CCCCN1C)C(=O)N(C)[C@H](C[C@@H](OC)c1nc(C(=O)N[C@H](CC(=O)OC)Cc2ccccc2)cs1)C(C)C [Compound 25]
pEC50 [1, 14]: 6.81 | pEC50 [2, 15]: 6.09 | pEC50 [3, 16]: 6.51 | pEC50 [4, 17]: 6.57 | pEC50 [5, 37]: 6.96 | pEC50 [12, 34]: < 5.52 | pEC50 ([6]; Homo sapiens, A2058): 6.39 | pEC50 [13]: 6.95 | pEC50 [7, 19]: 6.57 | pEC50 [8, 20]: 6.68 | pEC50 [9, 21]: 6.61 | pEC50 [10, 22]: 6.74 | pEC50 [11, 23]: 6.02

CC[C@H](C)[C@H](NC(=O)[C@H]1CCCCN1C)C(=O)N(COC(=O)CC(C)C)[C@H](C[C@@H](O)c1nc(C(=O)N[C@@H](Cc2ccccc2)C(=O)OC)cs1)C(C)C [Compound 28]
pEC50 [1, 24]: 8.24 | pEC50 [2, 25]: < 7.00 | pEC50 [3, 26]: < 7.00 | pEC50 [4, 27]: < 7.00 | pEC50 [5, 35]: 7.96 | pEC50 [12, 29]: 8.37 | pEC50 [6]: 9.02 | pEC50 [7, 30]: < 7.00 | pEC50 [8, 31]: 7.82 | pEC50 [9, 36]: 7.77 | pEC50 [10, 32]: 8.00 | pEC50 [11, 33]: 7.57

CC[C@H](C)[C@H](NC(=O)[C@H]1CCCCN1C)C(=O)N(C)[C@H](C[C@@H](OC)c1nc(C(=O)N[C@@H](Cc2ccc(N)cc2)CC(C)C(=O)O)cs1)C(C)C (some centres unmarked) [Compound 51]
pEC50 [1, 24]: 7.80 | pEC50 [2, 25]: 7.52 | pEC50 [3, 26]: 8.14 | pEC50 [4, 27]: 9.12 | pEC50 [5, 35]: 8.00 | pEC50 [12, 29]: 8.89 | pEC50 [6]: 9.40 | pEC50 [7, 30]: 8.11 | pEC50 [8, 31]: 8.30 | pEC50 [9, 36]: 8.42 | pEC50 [10, 32]: 8.36 | pEC50 [11, 33]: 7.70

CC[C@H](C)[C@H](NC(=O)[C@H]1CCCCN1C)C(=O)N(C)[C@H](C[C@@H](OC(C)=O)c1nc(C(=O)N[C@@H](Cc2ccc(N)cc2)C(=O)O)cs1)C(C)C [Compound 56]
pEC50 [1, 24]: < 7.00 | pEC50 [2, 25]: < 7.00 | pEC50 [3, 26]: < 7.00 | pEC50 [4, 27]: < 7.00 | pEC50 [5, 28]: < 7.00 | pEC50 [12, 29]: < 7.00 | pEC50 [6]: < 7.00 | pEC50 [7, 30]: < 7.00 | pEC50 [8, 31]: 7.62 | pEC50 [9, 36]: < 7.00 | pEC50 [10, 32]: < 7.00 | pEC50 [11, 33]: < 5.52
